Test results published in patent US20110033390A1, “MR IMAGING AGENT OR MEDIUM COMPRESSING HYPERPOLARISED 13C ALANINE AND METHODS OF IMAGING WHEREIN SUCH AN IMAGING MEDIUM IS USED” (priority 2008, published 2011).

What was measured:
[1] = Solid state polarisation after DNP, by solid state 13C-NMR; type: physicochemical; conditions: DNP at 1.2 K, 3.35 T, microwave 93.90 GHz; trityl radical and Gd-chelate present
Text: The level of polarisation may for instance be determined by solid state ^13C-NMR measurements in solid hyperpolarised ^13C-alanine, e.g. solid hyperpolarised ^13C-alanine obtained by dynamic nuclear polarisation (DNP) of ^13C-alanine. The solid state ^13C-NMR measurement preferably consists of a simple pulse-acquire NMR sequence using a low flip angle. The signal intensity of the hyperpolarised ^13C-alanine in the NMR spectrum is compared with signal intensity of ^13C-alanine in a NMR spectrum acquired before the polarisation process. The level of polarisation is then calculated from the ratio of the signal intensities of before and after polarisation.
The probe is inserted into the probe-retaining container, submerged in the liquid helium and irradiated with microwaves, preferably at a frequency of about 94 GHz at 200 mW. The level of polarisation may for instance be monitored by solid state ^13C-NMR measurements of the ^13C-nuclei in the frozen composition comprising the hyperpolarised sample. […] The level of polarisation is then calculated from the ratio of the signal intensities of before and after polarisation.
32.5 mg (0.258 mmol) of the ^13C1-alaninium chloride obtained in Example 1a was added to 42 mg of a stock solution in a micro test tube. […] Polarisation was followed by solid state ^13C-NMR and the solid state polarisation was determined to be 40%. […]

mice (whole body) = assay: In vivo 13C-MR spectroscopy in mice (whole body); set-up: species or system mouse
Method: 175 μl of an imaging medium which was prepared as described in Example 1 was injected into a C57B1/6 mouse over a time period of 6 s. The ^13C1-alanine concentration in said imaging medium was approximately 50 mM and 3 animals were used in the experiment. A rat size whole body coil (tuned for proton and carbon) was placed over the animal and ^13C-MR spectroscopy was carried out in a 9.4 T magnet. A dynamic set of ^13C-MR spectra (in total 5) was acquired every 5 s with a 15 degree RF pulse. Metabolism was seen to ^13C1-lactate (approximately 1% of the ^13C1-lactate signal), see FIG. 1. […] The following decay time was calculated from the MR spectra: ^13C1-lactate 33 s. […] It is thus favourable to detect the lactate signal which due to its slow decay provides a larger MR detection window.

[2] = mouse, in vivo
Method: In another preferred embodiment, the imaging medium comprising hyperpolarised ^13C-alanine is administered repeatedly, thus allowing dynamic studies. This is a further advantage of the method according to the invention compared to other MR detection methods using conventional MR contrast agents which—in higher doses—may show toxic effects.

[3] = Relaxation / loss of polarisation in solution as a function of pH; type: physicochemical; conditions: solutions with a pH above 7
Text: If the sample used in the composition for DNP is a carboxylate salt of ^13C-alanine, said salt needs to be converted to the free ^13C-alanine by reaction (neutralization) with an acid. […] Thus, if a carboxylate salt of ^13C-alanine was used in the composition for DNP, the liquefaction and neutralization of the solid composition comprising the hyperpolarised carboxylate salt of ^13C-alanine needs to be carried out carefully in order to avoid loss of polarisation. Neutralization may be carried out simultaneously or subsequently to the liquefaction, for the latter it must be taken care that neutralization is carried out quickly and directly after liquefaction. Thus, in one embodiment the liquefaction is carried out by melting or dissolution of the frozen composition and neutralization with an acid is quickly carried out after the frozen composition was dissolved/melted. In another embodiment, liquefaction and neutralization are carried out simultaneously, e.g. by dissolving the frozen composition in a dissolution medium which is or contains an acid that is capable of converting the hyperpolarised carboxylate salt of ^13C-alanine to ^13C-alanine. In yet another embodiment the acid is added to the probe-retaining cup which contains the frozen composition in the dynamic nuclear polarisation process. […] The most preferred acid is HCl since it is cheap and readily available.

[4] = Liquid state polarisation after dissolution and neutralization, by liquid state 13C-NMR at 400 MHz; type: physicochemical
Method: In a similar way, the level of polarisation for hyperpolarised ^13C-alanine in solution may be determined by liquid state NMR measurements. Again the signal intensity of the hyperpolarised ^13C-alanine in solution is compared with the signal intensity of the ^13C-alanine in solution before polarisation. The level of polarisation is then calculated from the ratio of the signal intensities of ^13C-alanine before and after polarisation.
After 150 minutes of dynamic nuclear polarisation, the obtained frozen polarised solution was dissolved in a dissolution medium containing 6 ml of a phosphate buffer (20 mM, pH 6.8, 100 mg/l EDTA), aqueous NaOH (27 μl 12 M solution, 1 eq) and 30 mg NaCl. The pH of the final liquid was 6.8.
Liquid state polarisation was determined by liquid state ^13C-NMR at 400 MHz to be 35%.
After 120 minutes of dynamic nuclear polarisation, the obtained frozen polarised solution was dissolved in a dissolution medium containing 6 ml BIS TRIS (40 mM, pH 6, 100 mg/l EDTA, 0.9% NaCl). The pH of the final solution containing the dissolved composition was 6.
Liquid state polarisation was determined by liquid state ^13C-NMR at 400 MHz to be 16%.

Hep-G2 cells = assay: In vitro 13C-MR spectroscopy with hyperpolarised 13C1-alanine imaging medium; type: cell-based, human; conditions: 3 mM 13C1-alanine, 10x10^6 Hep-G2 cells, 20 s incubation
Method: An imaging medium was prepared as described in Example 1 and 100 μl of the imaging medium (3 mM ^13C1-alanine) was mixed into 10×10^6 Hep-G2 cells (human hepatocellular carcinoma cells). A single ^13C-MR spectrum was acquired after a total of 20 s incubation time with a 90 degree RF pulse. ^13C1-pyruvate and ^13C1-lactate were identified in the spectrum. The conversion of alanine was approximately 0.1% to both lactate and pyruvate.

mouse liver = assay: In vivo 13C-MR spectroscopy in mice (liver); conditions: C57B1/6 mouse, surface coil over liver
Method: 175 μl of an imaging medium which was prepared as described in Example 1 was injected into a C57B1/6 mouse over a time period of 6 s. The ^13C1-alanine concentration in said imaging medium was approximately 55 mM. A surface coil (tuned for proton and carbon) was positioned over the liver of the animal and ^13C-MR spectroscopy was carried out in a 9.4 T magnet. A dynamic set of ^13C-MR spectra (in total 15) was acquired every 5 s with a 30 degree RF pulse. This experiment confirmed that ^13C1-lactate is building up during the time course of the experiment, see FIG. 3.

mouse heart = assay: In vivo 13C-MR spectroscopy in mice (heart)
Method: 175 μl of an imaging medium which was prepared as described in Example 1 was injected into a C57B1/6 mouse over a time period of 6 s. The ^13C1-alanine concentration in said imaging medium was about 55 mM. A surface coil (tuned for proton and carbon) was positioned over the heart of the animal and ^13C-MR spectroscopy was carried out in a 9.4 T magnet. A dynamic set of ^13C-MR spectra (in total 10) was acquired every 5 s with a 30 degree RF pulse. […] The lactate seen in the experiment is expected to originate from pyruvate. […] Comparing Examples 5 and 6, a different metabolic profile is obtained for the liver and the heart showing that ^13C-alanine is a tissue specific metabolic marker.

For C[C@H](N)[13C](=O)O.Cl [^13C1-alaninium chloride], the solid state polarisation [1] was 40%.

In the case of C[C@H](O)[13C](=O)O [^13C1-lactate], the “decay time calculated from the MR spectra” value (mice (whole body); 13C1-lactate signal after injection of hyperpolarised 13C1-alanine, mouse whole body) was 33 s.

In the case of CC(N)C(=O)O (stereo not drawn) [hyperpolarised ^13C-alanine, 2-amino-propanoic acid], the tolerability [2] was “well tolerated” and the “relaxation rate / loss of polarisation” value [3] was “high relaxation rates”.

For CC(N)[13C](=O)[O-].[Na+] (stereo not drawn) [sodium ^13C1-2-amino-propanoate], the solid state polarisation [1] was 18%.

For CC(N)[13C](=O)O (stereo not drawn) [^13C1-alanine], the liquid state polarisation ([4]; Example 1c: from 13C1-alaninium chloride after 150 min DNP, dissolved in phosphate buffer/NaOH, final pH 6.8) was 35%, the liquid state polarisation ([4]; Example 2: from sodium 13C1-2-amino-propanoate after 120 min DNP, dissolved in BIS TRIS, HCl neutralization, final pH 6) was 16% and the “conversion of alanine to lactate” value (Hep-G2 cells) was “approximately 0.1%”. The “conversion of alanine to pyruvate” value (Hep-G2 cells) was “approximately 0.1%”, the “metabolism to 13C1-lactate (relative signal)” value (mice (whole body); C57B1/6 mouse, 175 µl of approx. 50 mM injected over 6 s, whole body coil, 9.4 T) was “approximately 1%” and the pyruvate signal (mice (whole body); mouse whole body) was “No pyruvate signal could be detected”. For the same molecule, the “13C1-lactate signal over the time course” value (mouse liver; 175 µl of approx. 55 mM) was “building up”, the “13C1-pyruvate and 13C1-bicarbonate signals” value (mouse liver; 15 combined spectra) was “could be detected” and the “build-up of 13C1-lactate” value (mouse heart; C57B1/6 mouse, 175 µl of about 55 mM, surface coil over heart) was “noteworthy slow”. For the same molecule, the pyruvate signal (mouse heart; mouse heart) was “absence of pyruvate”.
